Results published in paper PMC2364024, “Bioavailability and dose-dependent anti-tumour effects of 9-cis retinoic acid on human neuroblastoma xenografts in rat” (British Journal of Cancer, 2001).
Where “and” joins values, the source holds several entries; their conditions need not be identical. Equal entries are not always repeated. Entries after “also recorded” stand apart in the source; their conditions may differ. Where two headings read alike, the source gives them in different places.

Assays:
[1] = rat, in vivo; for conversion of 9-cis RA to its metabolite (4-oxo-9-cis RA) / ratio AUC (4-oxo-9-cis RA)/AUC (9 cis RA): male, Sprague-Dawley; for ratio AUC (4-oxo-9-cis RA)/AUC (9 cis RA) / AUC (area under the curve) / Cmax (concentration maximum) / T1/2 (elimination half-life): 9 mg
[2] = tested on: human neuroblastoma SH-SY5Y xenografts; set-up: method as in Ponthan et al, 2001; conditions: nude rats, 9-cis RA 5 mg day-1 (once daily); ref Ponthan et al, 2001; cited from earlier work
[3] = tested on: human neuroblastoma SH-SY5Y xenografts; assay: Neuroblastoma SH-SY5Y xenograft tumour growth in nude rats; type: in vivo
Protocol: This increases the importance of finding new therapeutic drugs. […] Two animals were sacrificed at each time point. […] The true tumour weight was recorded at autopsy. […] All treatments were administered with a gastric feeding tube.

[4] = Pharmacokinetic study of 9-cis RA in rat (plasma HPLC, one-compartment model)

## CC1=C(/C=C/C(C)=C\C=C\C(C)=C\C(=O)O)C(C)(C)CCC1 [9-cis RA, 9-cis retinoic acid]
[1]; iv
  conversion of 9-cis RA to its metabolite (4-oxo-9-cis RA): about 8%
  ratio AUC (4-oxo-9-cis RA)/AUC (9 cis RA): 0.08
[1]; po
  conversion of 9-cis RA to its metabolite (4-oxo-9-cis RA): 42%
  ratio AUC (4-oxo-9-cis RA)/AUC (9 cis RA): 0.42
[2]
  effect on tumour growth: significant reduction in tumour growth
[3]; 2 x 2.5 mg day-1 treated group
  tumour weight, trend: tendency towards a reduction in tumour weights
[3]; 9-cis RA 2 mg day-1 (RA 1), n 10 tumours, 12 days
  tumour weight at sacrifice, median (and range): 2.79 g and 1.49 to 9.98 g
[3]; 9-cis RA 2 mg day-1 p.o.
  effect on tumour growth: no significant effect on tumour growth; also recorded: tumour growth-inhibiting effect was not significant
[3]; 9-cis RA 2 mg day-1 p.o., 12 days
  tumour volume compared to control tumours: no significant reduction in tumour volume
[3]; 9-cis RA 2.5 mg p.o. twice daily
  effect on tumour growth: only limited effect on tumour growth; also recorded: limited but statisti- cally significant reduction in tumour growth
[3]; 9-cis RA 2.5 mg p.o. twice daily, day 8
  tumour volume compared to corresponding controls: not at day 8
[3]; 9-cis RA 2 x 2.5 mg (RA 2), n 3 tumours, 10 days
  tumour weight at sacrifice, median (and range): 1.84 g and 0.92 to 2.95 g
[3]; regardless of treatment schedule (2 mg day-1 or 2.5 mg twice daily), after 10-12 days of therapy
  tumour weight compared to untreated control tumours: no significant reduction in tumour weight
[4]; 9 mg 9-cis RA, p.o. and i.v. taken together
  elimination half-life (t1/2): 26 to 43 min
[4]; intravenous administration, 9 mg 9-cis RA
  AUC (area under the curve): 80100 ng·h/mL
[4]; male, Sprague-Dawley, plasma, iv, 9 mg
  Cmax: 120000 ng/mL
[4]; male, Sprague-Dawley, plasma, iv, 9 mg, T1/2 (elimination half-life), intravenous administration, 9 mg 9-cis RA
  half-life: 26.4 min
[4]; male, Sprague-Dawley, plasma, oral, 9 mg
  bioavailability: 11%
[4]; male, Sprague-Dawley, plasma, other: p.o. and i.v. taken together, 9 mg, elimination half-life (t1/2), 9 mg 9-cis RA, p.o. and i.v. taken together
  half-life: 35 min
[4]; male, Sprague-Dawley, plasma, po, 9 mg
  Cmax: 3000 ng/mL
[4]; male, Sprague-Dawley, plasma, po, 9 mg, T1/2 (elimination half-life), oral administration, 9 mg 9-cis RA
  half-life: 42.6 min
[4]; oral administration, 9 mg 9-cis RA
  AUC (area under the curve): 8550 ng·h/mL

## CC1=C(/C=C/C(C)=C\C=C\C(C)=C\C(=O)O)C(C)(C)CCC1=O [4-oxo-9-cis RA, 4-oxo-9-cis retinoic acid]
[1]
  formed amount (AUC) of 4-oxo-9-cis RA after i.v. versus p.o. administration: 2 fold
[1]; iv
  Tmax (time of Cmax): 188 min
  AUC (area under the curve): 6295 ng/mL/h
  Cmax (concentration maximum): 738 ng/mL
  T1/2 (elimination half-life): 129 min
[1]; po
  Tmax (time of Cmax): 275 min
  AUC (area under the curve): 3563 ng/mL/h
  Cmax (concentration maximum): 441 ng/mL
  T1/2 (elimination half-life): 126 min
